Measured values from patent publication US12336554B2, “Cannabinoid acid beverage” (CHEMTOR, LP, priority 2020, dated 2025).

Test: Dissolution of THCA crystalline powder in distilled water at different pH
Type: physicochemical
Description: 50 mgs of high purity (>99% by weight) THCA crystalline powder was added to 250 ml of distilled water at a pH of 6.5.
The distilled water and THCA from Comparative Example 1 was brought to a pH of 9.5 through the addition of a base and warmed to 40° C.

CCCCCc1cc2c(c(O)c1C(=O)O)[C@@H]1C=C(C)CC[C@H]1C(C)(C)O2 [THCA, tetrahydrocannabinolic acid]
Dissolution in distilled water after heating (50 mgs in 250 ml distilled water, pH 6.5, heated to 100° C.): still did not dissolve | Dissolution in distilled water (50 mgs in 250 ml distilled water, pH 6.5, immediately and after stirring): did not immediately dissolve, not did it dissolve after stirring | Dissolution in alkaline water (50 mgs in 250 ml water, pH 9.5 by addition of a base, warmed to 40° C.): dissolved into solution and produced a clear aqueous solution | Solution stability after cooling (pH 9.5 solution cooled to room temperature): the solution remained clear
